Data published in patent US11230711B2, “Inhibition of LET7I as a means to enhance the protective effect of progesterone against stroke” (UNIVERSITY OF NORTH TEXAS HEALTH SCIENCE CENTER, priority 2017, dated 2022).

Key:
Assay type in all cases: in vivo, mouse
[1] = tested on: Pgrmc1; assay: Pgrmc1 protein in the penumbra after MCAo (Western blot); conditions: MCAo mice; day 7 and day 14; FIG. 11B
From the text: (§1) (FIG. 11A) Representative immunoblots probed for Pgrmc1, pro- and mature-BDNF. (FIG. 11B) Quantitation graph of relative Pgrmc1 protein ratio to Gapdh (n=4-5 per group). (FIG. 11C) Quantitation graph of relative pro-BDNF protein ratio to Gapdh (n=4-5 per group). (FIG. 11D) Quantitation graph of relative mature BDNF protein ratio to Gapdh (n=4-5 per group). (FIG. 11E) Quantitation graph of relative let-7i expression in ischemic brain (n=4-5 per group). n.s: not significant, ** P<0.01 and *P<0.05 compared to sham, and #P<0.05 compared to P4+scrambled. Data are presented as the mean±SEM.
(§2) Primary cortical astrocytes and mouse brains were lysed with RIPA lysis buffer containing protease and phosphatase inhibitors, as previously described (44). After homogenization, samples were centrifuged at 45,000 rpm for 30 min at 4° C. and supernatants were collected. Total protein concentrations were determined using the Bio-Rad DC protein assay kit (Bio-Rad Laboratories). Cell lysates were separated by SDS-PAGE and transferred onto polyvinylidene fluoride membrane (Bio-Rad Laboratories) by electroblotting. Membranes were blocked with 5% skim milk in tris-buffered saline containing 0.2% Tween 20 (TBS-T) for 1 h at room temperature, followed by overnight incubations of primary antibodies at 4° C. […]

[2] = tested on: BDNF; assay: pro- and mature BDNF protein in the penumbra after MCAo (Western blot); conditions: MCAo mice; 14 days post stroke, compared to sham; FIG. 11D
From the text: as §1, §2

[3] = tested on: synaptophysin (SYP); assay: Synaptophysin (SYP) protein and puncta in the penumbra after MCAo (immunofluorescence, Western blot); conditions: MCAo mice
From the text: FIGS. 14A-14D: Inhibition of let-7i enhances progesterone (P4)'s effect on the expression of synaptophysin in the penumbra. (FIG. 14A) Representative confocal images of penumbra region staining for synaptophysin (SYP, red) and DAPI (blue). (60×, Scale bars=30 μm). (FIG. 14B) Quantification of average relative SYP puncta presents in each field (n=3 per group). n.s: not significant and ***P<0.001 compared to sham, ### P<0.001 and ##P<0.01 compared to P4+scrambled. (FIG. 14C) Representative immunoblots probed for SYP protein. (FIG. 14D) Quantification graph of Syp signal, expressed as a ratio to Gapdh (n=4-5 per group). n.s: not significant, ***P<0.001 and **P<0.01 compared to sham, ## P<0.01 and #P<0.05 compared to P4+scrambled.
Primary cortical astrocytes and mouse brains were lysed with RIPA lysis buffer containing protease and phosphatase inhibitors, as previously described (44). […] Total protein concentrations were determined using the Bio-Rad DC protein assay kit (Bio-Rad Laboratories). […]
Mouse brains were fixed in 4% PFA overnight at 4° C. and subsequently cryoprotected in 30% sucrose solution. […] After immunostaining, sections were mounted onto microscope slides with Vectashield mounting medium (Vector Laboratories) and observed under a confocal fluorescence microscope (FV1200, Olympus) with a […] objective. […]

What does the source list for CC(=O)[C@H]1CC[C@H]2[C@@H]3CCC4=CC(=O)CC[C@]4(C)[C@H]3CC[C@]12C [P4, progesterone]?
Pgrmc1 protein level in the penumbra [1]: did not restore; mature BDNF level in the penumbra [2]: able to maintain the same level; SYP total protein expression in the penumbra ([3]; day 7 and day 14, FIG. 14D): delayed, but sustained, restoration; number of SYP puncta in the penumbra ([3]; day 14, FIG. 14B): positive effect
